From patent US12472185B2, “Methods for killing antibiotic tolerant bacteria” (THE PENN STATE RESEARCH FOUNDATION, priority 2020, dated 2025)
Several values for one entry are separate records, joined by “and”; a condition that tells them apart may be missing. Identical values can stand only once.

Columns and labels:
S. aureus = experiment: Lysis assays (total protein and DNA in supernatants); assay type: cell-based, Staphylococcus aureus; settings: 100 μM, 6 hr
Method: (§1) FIG. 5. NPIMA lyses Escherichia coli, Pseudomonas aeruginosa, and Staphylococcus aureus. Total protein (a) and DNA (b) found in supernatants as evidence of cell lysis after treatment of cells at a turbidity of 0.8 at 600 nm with 100 μM NPIMA after 1 hr for E. coli and P. aeruginosa and 6 hr for S. aureus. NPIMA, 5-nitro-3-phenyl-1H-indol-2-yl-methylamine hydrochloride.
(§2) Exponentially-growing E. coli BW25113 cells (turbidity 0.8 at 600 nm) were washed twice with 0.85% NaCl, resuspended in 1 ml of 1×PBS, and NPIMA (100 μM) was added for 1 hr for E. coli and P. aeruginosa and 6 hr for S. aureus with shaking at 250 rpm (0.1% DMSO was used as the negative control). Cell supernatants were collected after centrifuging at 6,500 g (4° C. for 15 min), and total protein was measured by the Bicinchoninic Acid (BCA) protein assay Kit (Prod #23227; Pierce). DNA in the supernatant (199 μl) was detected by adding 1 μl of Picogreen (P7589; Invitrogen) and incubating for 5 min at room temperature in the dark room. The fluorescence signal was read by a Tecan microplate reader (Infinite M200PRO) with 480 nm excitation and 520 nm emission by utilizing a calibration curved made with plasmid pEX18Ap at 0, 0.004, 0.008, 0.016, 0.063, 0.125, 0.25, and 0.5 ng/μl.

[1] = system: P. aeruginosa PA14 exponentially-growing cells; experiment: Killing at one MIC in PBS, NPIMA compared with cisplatin; assay type: cell-based, Pseudomonas aeruginosa; settings: 3 hr
Excerpt: (§3) FIG. 7. NPIMA compared width cisplatin for killing Pseudomonas aeruginosa, Escherichia coli, and Staphylococcus aureus. Survival of exponentially-growing cells of P. aeruginosa PA14 (a), E. coli (b), and S. aureus (c) treated with one MIC of NPIMA (♦) and cisplatin (●) for 3 hr in PBS. DMSO (▴) and NaClO4 (*) were used as a negative controls. MIC, minimum inhibitory concentration; NPIMA, 5-nitro-3-phenyl-1H-indol-2-yl-methylamine hydrochloride.
(§4) For bacterial viability, cells were washed twice with 0.85% NaCl, resuspended in 1×PBS, and cell counts were determined via the drop assay (Donegan, Matyac, Seidler, & Porteous, 1991). For human cell viability, pre-cultured human cancer HT-29 cells were dispensed in 98 μl in 96-well plates with approximately 5,000 cells/well. NPIMA was added (2 μl) to produce concentrations of 5, 10, 100, and 200 μM. For controls, Triton X-100 (positive control) and DMSO (negative solvent control), were used, and the medium was used for background. Plates were incubated in a humidified incubator (37° C., 5% CO2) for 24 hr. Cell viability was determined via a cell counting kit (CCK-8 Kit, ab228554; Abcam), and cytotoxicity was determined via the lactate dehydrogenase (LDH) assay (LDH Assay Kit, MK401; Takara).

S. aureus ATCC29213 = experiment: Minimum inhibitory concentration (MIC); assay type: cell-based; settings: Staphylococcus aureus, LB, 24 hr
Method: (§5) The bacteria used in this study are E. coli K-12 BW25113 (Baba et al., 2006), S. aureus ATCC29213, and P. aeruginosa PA14 (Liberati et al., 2006). Lysogeny broth (LB; Bertani, 1951) was used at 37° C. for culturing the bacteria. 2-(Aminomethyl)-indole was obtained from Sigma-Aldrich (catalog number 563838), and 2-methyl-5-nitro-3-phenyl-1H-indole was obtained from ChemBridge (San Diego, CA).
(§6) To determine the MICs of NPIMA and 5-iodoindole for E. coli K-12, S. aureus, and P. aeruginosa PA14, cells were inoculated into LB at varying concentrations and grown for 24 hr. The MIC was determined as the lowest concentration that prevented an increase in growth as evidenced by a lack of change of turbidity.

P. aeruginosa PA14 [2] = experiment: Minimum inhibitory concentration (MIC); assay type: cell-based; settings: Pseudomonas aeruginosa, LB, 24 hr
Method: as §5, §6

E. coli K-12 BW25113 = experiment: Minimum inhibitory concentration (MIC); assay type: cell-based; settings: Escherichia coli, LB, 24 hr
Method: as §5, §6

P. aeruginosa PA14 [3] = experiment: LIVE/DEAD staining; assay type: cell-based, Pseudomonas aeruginosa; settings: 100 μM, 1 hr
Method: FIG. 4. NPIMA lyses Escherichia coli, Pseudomonas aeruginosa, and Staphylococcus aureus. LIVE/DEAD staining of (a) E. coli BW25113 after 0.75 hr, (b) P. aeruginosa PA14 after 1 hr, and (c) S. aureus after 1 hr treatment with NPIMA at 100 μM. […] White arrows indicate lysed cells. Representative images are shown. Scale bar=[…]. NPIMA, 5-nitro-3-phenyl-1H-indol-2-ylmethylamine hydrochloride.
Cell viability after treating with NPIMA was determined using the using the LIVE/DEAD BacLight Bacterial Viability Kit (catalog number, L7012; Molecular Probes, Inc., Eugene, OR). The fluorescence signal was analyzed via a Zeiss Axioscope.A1 using excitation at 485 nm and emission at 530 nm for green fluorescence and using excitation at 485 nm and emission at 630 nm for red fluorescence.

[4] = system: E. coli exponentially-growing cells; experiment: Killing at one MIC in PBS, NPIMA compared with cisplatin; assay type: cell-based, Escherichia coli; settings: 3 hr
Excerpt: as §3, §4

P. aeruginosa = experiment: Lysis assays (total protein and DNA in supernatants); assay type: cell-based, Pseudomonas aeruginosa; settings: 100 μM, 1 hr
Method: as §1, §2

[5] = system: P. aeruginosa + S. aureus; experiment: In vitro Lubbock chronic wound pathogenic biofilm model; assay type: cell-based, Pseudomonas aeruginosa and Staphylococcus aureus; settings: 0.5 mM, 6 hr
Method: FIG. 10. NPIMA kills S. aureus and P. aeruginosa in a wound model. Survival of total cells (P. aeruginosa+S. aureus) in the wound model after treatment with NPIMA for 6 h. The left bar is the solvent (DMSO) negative control.
Overnight cultures of S. aureus and P. aeruginosa PA14 were diluted in wound-like media (45% Bolton broth, 50% bovine plasma, and 5% laked horse blood; Sun, Dowd, Smith, Rhoads, & Wolcott, 2008) to a turbidity of 0.5 at 600 nm in 1 ml. Each culture (1%) was used to inoculate fresh 5 ml of wound-like media. The combined culture (200 μl/well) was placed into 96-well plates and incubated at 37° C. with shaking for 24 hr. The non-gel liquid was removed, then the gel was washed once with PBS. NPIMA (0.1 and 0.5 mM) and DMSO were then added (200 μl/well) to the plates, which were incubated for another 6 hr with shaking. By triturating, the gel with cells was removed and added to 0.8 ml of PBS, and the cell viability was measured by spreading 100 μl of diluted culture on LB plates.

Cl.NCc1[nH]c2ccc([N+](=O)[O-])cc2c1-c1ccccc1 [NPIMA, [(5-nitro-3-phenyl-1H-indol-2-yl)methyl]amine hydrochloride]
DNA released compared with DMSO alone (S. aureus): 1.82±0.05 fold
total protein released compared with DMSO alone (S. aureus): 2.9±0.1 fold
effectiveness relative to cisplatin [1]: less effective
MIC (S. aureus ATCC29213): 100 µM
MIC (P. aeruginosa PA14 [2]): 250 µM
MIC (E. coli K-12 BW25113): 100 µM and 15 µg/mL
cell lysis seen by LIVE/DEAD staining (extracellular DNA) (P. aeruginosa PA14 [3]): lysed
cells killed (LIVE/DEAD) (P. aeruginosa PA14 [3]): 100%
effectiveness relative to cisplatin [4]: more effective than cisplatin
increase in DNA released compared to DMSO alone (P. aeruginosa): 1.19±0.09 fold
total protein released compared to DMSO alone (P. aeruginosa): 4.0±0.4 fold
reduction of total viable number of cells compared to DMSO [5]: 10 fold
